The results in this text go back to US20100204202A1, “DRUG FOR ALLEVIATING MOTOR COMPLICATIONS OR PSYCHIATRIC SYMPTOMS OF PARKINSON'S DISEASE” (Asubio Pharma Co., Ltd., priority 2007, published 2010).

Data set [1] is described as follows: Concentration in plasma after sustained subcutaneous administration (osmotic pump). Format: in vivo. The conditions noted are these: rat, sc, after the end of the behavioral experiments. The procedure: Therefore, the inventors prepared Parkinson's disease model rats in the same way as in Example 4 and treated the rats by repeated doses of levodopa (twice a day, Monday to Friday) for 7 weeks. The presence or absence of the rotational behavior of each rat was recorded at approximately 1 hour after the administration of levodopa during the repeated dosing period. […] Therefore, from weeks 1 to 5 of repeated doses of levodopa, the inventors recorded the presence of any rotational behavior of the rats each time, then studied the effects of the tested substances from week 6 of repeated doses of levodopa by implanting an Aizet® osmotic pump filled with SUN N4057 or physiological saline (2ML4, volume 2 ml, flow rate 2.5 μl/hr) subcutaneously at the rats. In the 2 weeks after that, the inventors similarly continued to record the presence of any rotational behavior of the rats 1 hour after levodopa administration.
Note that the measured values of the concentration of SUN N4057 in the plasma of each group measured after the end of the behavioral experiments were 5.3±0.7 ng/mL in the SUN N4057 low dosage sustained subcutaneous administration group and 14.3±2.9 ng/mL in the high dosage sustained subcutaneous administration group.

In data set [2] the test system is Parkinson's disease model rats. Put plainly: Inhibition of induction of hyperkinesia of the forelimbs. Format: in vivo, rat. The procedure: By repeated doses of levodopa to Parkinson's disease model rats, hyperkinesia of the forelimbs (abnormal action similar to dyskinesia in clinical studies) was observed (see FIG. 3). Therefore, it was studied whether it is possible to inhibit the induction of hyperkinesia of the forelimbs by repeated dosage of the tested substance from the start along with the start of repeated doses of levodopa.
The tested substance was intraperitoneally administered about 20 minutes before levodopa administration.

For data set [3], the system named is rats. Put plainly: Amount of locomotor activity. Type of data set: in vivo, rat. The settings on record: 0.3, 1, and 3 mg/kg i.p.; minutes 0-15. The source says: For the test, Crl: CD(SD) male rats supplied by Charles River Japan were used (6 weeks old at start of test). For the forced swimming test, the method of the improved type reported by Lucki et al. (Lucki I., “The forced swimming test as a model for core and component behavioral effects of antidepressant drugs”, Behavioural Pharmacology, 1997, 8, p. 523-532; Cryan J. F. et al., “Assessing antidepressant activity in rodents: recent developments and future needs”, TRENDS in Pharmacological Sciences, 2002, 23, p. 238-245) was used. On day 1, each rat was placed in a cylinder filled with water (height 45 cm×diameter 30 cm, water depth 30 cm, water temperature 23° C., water depth set to depth by which back legs and tail of rat will not touch the bottom). The rat was taken out after 15 minutes. At this time, the immobility period (seconds) of minutes 10-15 (5 minutes) was recorded. Based on the results, the rats were assigned to five groups so that there would be no difference among the groups. On day 2, each rat was placed in a cylinder filled with water the same as day 1 and the immobility period (seconds), swimming behavior period (seconds), and climbing behavior period (seconds) of minutes 0-5 (5 minutes) were measured. […]

Data set [4] has as its system Parkinson's disease patients. The data set is described as follows: Clinical test of efficacy, safety and tolerability in patients with motor complications associated with Parkinson's disease. Type of data set: in vivo, human. The text has this:
The efficacy of SUN N4057 on motor complications accompanying levodopa therapy in Parkinson's disease patients was studied in randomized, double-blind, placebo-controlled, multicenter, international, preliminary study. The patients aged 40 to 85 years, having idiopathic Parkinson's disease fulfilling the United Kingdom Parkinson's Disease Society (UK PDS) brain bank diagnostic criteria, having a presumed or confirmed diagnosis of Parkinson's disease in Stages 2 to 4 on the Hoehn & Yahr classification scale when in an “off” state, having a diagnosis of Parkinson's disease for at least 5 years, and being on a stable regimen of levodopa (L-dopa)/carbidopa for 30 days prior to the administration of the tested drug were enrolled into the study.
After providing their informed consent, the subjects were screened in 9 to 22 days before scheduled date of start of administration. During the screening phase, the patients continued to take their usual regimen of antiparkinsonian drugs including combinations of levodopa and carbidopa or combined use of single drugs.
At the baseline (8±2 days before scheduled date of start of administration), the subjects returned to the clinic for a baseline assessment of motor fluctuations over an 8-hour period. They received the first morning dose of the patient's usual anti-Parkinson's disease drugs (including combination of levodopa and carbidopa or combined use of single drugs), and the 8 hour evaluation began approximately 1 hour after taking the initial treatment. Each hour for 8 hours, the patient were assessed and it was recorded whether the patient was in the “on” (without dyskinesia), “on with dyskinesia,” or “off” motor states. The Unified Parkinson's Disease Rating Scale (UPDRS) Part III and the Abnormal Involuntary Movement Scale AIMS were also completed each hour over the 8-hour observation period.
The subjects judged eligible after the screening and baseline evaluation were randomly assigned in a 3:1 ratio (3 active:1 placebo) to receive SUN N4057 or matching placebo. The subjects received continuous intravenous infusion of SUN N4057 (target plasma concentration of 30 ng/mL) or a placebo for 12 hours a day for 2 consecutive days. The dose regimen was selected to reach the target plasma concentration 1 hour after the start of administration and to be maintained for 11 hours. The mean dosage of SUN N4057 for the patients was 13.123 mg on day 1 and 9.550 mg on day 2.
On day 1, motor assessments (recording of “on” or “off” periods), the Unified Parkinson's Disease Rating Scale (UPDRS) Part III, and the Abnormal Involuntary Movement Scale (AIMS) were conducted immediately prior to dosing with regular antiparkinsonian medications. After the first morning dose of the regular antiparkinsonian medication was administered, intravenous infusion of SUN N4057 or placebo was started. For 8 hours from the start of infusion, motor assessments, including the UPDRS Part III, AIMS, and recording of “on” and “off” periods were to be completed hourly.

The mark [5] stands for this setting: After administration (day 2), i.v. infusion 12 hours a day, n = 18.

Each structure is given as a SMILES string. Where a name gives a salt, the structure may show the parent alone.

In turn, `O=C1c2ccccc2OC=C(Cl)N1CCCCN1CC=C(c2ccccn2)CC1` [SUN N4057, 3-chloro-4,5-dihydro-4-{4-[4-(2-pyridyl)-1,2,3,6-tetrahydropyridin-1-yl]butyl}-1,4-benzoxazepin-5-one.dihydrochloride-dihydrate] yielded a concentration at 2 weeks in data set [1] (high dosage sustained subcutaneous administration group) of 14.3 ± 2.9 ng/mL. In data set [1] (low dosage sustained subcutaneous administration group), this compound came in with a concentration at 2 weeks of 5.3 ± 0.7 ng/mL. In data set [2] (3 mg/kg i.p. for 3 weeks), the “hyperkinesia of the forelimbs compared with the results after the 3 week withdrawal period” value is “significant inhibitory effect”. The “appearance of hyperkinesia of the forelimbs” value in data set [2] (3 mg/kg i.p. for 3 weeks together with the start of repeated doses of levodopa) is given as “reduced”. Also, the “amount of locomotor activity” value in data set [3] is on record as “no significant change”. Besides, in data set [4] (setting [5]), the “Percentage of off time” value worked out at 9.7%, the “Percentage of on time with dyskinesia” value turned out to be 49.3% and the “Percentage of on time without dyskinesia” value came to 41.0%. Also, in data set [4] (clinical study), the “serious adverse events or deaths” value is on record as “no serious adverse events or deaths were reported”. Also, the “decrease of the percentage of off time in the comparison with baseline” value in data set [4] (day 2 (9.7-20.8)) is 11.1 points. Also, the “increase of the percentage of on time without dyskinesia in the comparison with baseline” value in data set [4] (day 2 (41.0-18.8)) came to 22.2 points. Also, in data set [4] (day 2, placebo 0%, p=0.02), the “percentage of responder (dyskinesia by AIMS improved in severity or suppressed to zero without prolongation of off time)” value worked out at 56%. The “UPDRS Part 3 decline in comparison with the baseline” value in data set [4] (day 2 of administration, placebo 0.9) is reported as 4.4 point.
